MIC data for six molecules are collected here from ChEMBL document CHEMBL1127180, “Synthesis and mechanistic studies of a tetrazole-tethered cephalosporin-quinolone hybrid” (1993).

The MIC is the smallest concentration in the dilution series that meets the test's criterion for growth inhibition. Higher therefore signals a less susceptible organism.

Each structure is given as a SMILES string. Converted amounts (≈) assume the structure as drawn. Bounds are passed on as bounds.

Assay type in all cases: functional
For assay [1], the system named is Streptococcus pyogenes. In words: Tested for in vitro antibacterial activity against Streptococcus pyogenes 4.
Assay [2] deals with Citrobacter freundii. In words: Tested for in vitro antibacterial activity against Citrobacter freundii BS-16.
In assay [3] the test system is Enterobacter cloacae. In words: Tested for in vitro antibacterial activity against Enterobacter cloacae P99.
Assay [4] concerns Staphylococcus aureus. As to the kind of experiment: Tested for in vitro antibacterial activity against Staphylococcus aureus 753.
Assay [5] concerns Escherichia coli. As to the kind of experiment: Tested for in vitro antibacterial activity against Escherichia coli TEM-1.
The test system of assay [6] is Pseudomonas aeruginosa. As to the kind of experiment: Tested for in vitro antibacterial activity against Pseudomonas aeruginosa 5712.
The subject of assay [7] is Escherichia coli. In words: Tested for in vitro antibacterial activity against Escherichia coli 257.
The subject of assay [8] is Proteus vulgaris. As to the kind of experiment: Tested for in vitro antibacterial activity against Proteus vulgaris ATCC 6380.
The subject of assay [9] is Streptococcus pneumoniae. In words: Tested for in vitro antibacterial activity against Streptococcus pneumoniae 6301.
The subject of assay [10] is Staphylococcus aureus. In words: Tested for in vitro antibacterial activity against Staphylococcus aureus Smith.
Assay [11] has as its system Klebsiella pneumoniae. In words: Tested for in vitro antibacterial activity against Klebsiella pneumoniae A.
The test system of assay [12] is Pseudomonas aeruginosa. As to the kind of experiment: Tested for in vitro antibacterial activity against Pseudomonas aeruginosa 18SH.
The test system of assay [13] is Staphylococcus aureus. In words: Tested for in vitro antibacterial activity against Staphylococcus aureus 67.
Assay [14] has as its system Enterobacter cloacae. As to the kind of experiment: Tested for in vitro antibacterial activity against Enterobacter cloacae P99; inactive.
The test system of assay [15] is Citrobacter freundii. In words: Tested for in vitro antibacterial activity against Citrobacter freundii BS-16; inactive.
In assay [16] the test system is Pseudomonas aeruginosa. In words: Tested for in vitro antibacterial activity against Pseudomonas aeruginosa 5712; inactive.
The subject of assay [17] is Klebsiella pneumoniae. As to the kind of experiment: Tested for in vitro antibacterial activity against Klebsiella pneumoniae A; inactive.
The test system of assay [18] is Streptococcus pneumoniae. In words: Tested for in vitro antibacterial activity against Streptococcus pneumoniae 6301; inactive.
Assay [19] relates to Staphylococcus aureus. In words: Tested for in vitro antibacterial activity against Staphylococcus aureus 753; inactive.
In assay [20] the test system is Staphylococcus aureus. In words: Tested for in vitro antibacterial activity against Staphylococcus aureus Smith; inactive.
Assay [21] concerns Staphylococcus aureus. As to the kind of experiment: Tested for in vitro antibacterial activity against Staphylococcus aureus 67; inactive.
The test system of assay [22] is Streptococcus pyogenes. In words: Tested for in vitro antibacterial activity against Streptococcus pyogenes 4; inactive.
The subject of assay [23] is Pseudomonas aeruginosa. In words: Tested for in vitro antibacterial activity against Pseudomonas aeruginosa 18SH; inactive.
The test system of assay [24] is Escherichia coli. As to the kind of experiment: Tested for in vitro antibacterial activity against Escherichia coli TEM-1; inactive.
The test system of assay [25] is Proteus vulgaris. In words: Tested for in vitro antibacterial activity against Proteus vulgaris ATCC 6380; inactive.
The subject of assay [26] is Escherichia coli. In words: Tested for in vitro antibacterial activity against Escherichia coli 257; inactive.

Take `CO/N=C(/C(=O)NC1C(=O)N2C(C(=O)[O-])=C(CSc3nnnn3CC(=O)O)CS[C@H]12)c1csc(N)n1.[Na+]` (stereo partly drawn): the MIC is 0.0313 µg/mL against Streptococcus pyogenes [1]; 128 µg/mL against Citrobacter freundii [2]; greater than 128 µg/mL in the assay on Enterobacter cloacae [3]; greater than 128 µg/mL with Staphylococcus aureus [4]; 0.125 µg/mL in the assay with Escherichia coli [5]; 16 µg/mL in the assay on Pseudomonas aeruginosa [6]. Further, the MIC against Escherichia coli [7] is 0.125 µg/mL; in the assay with Proteus vulgaris [8] it was no more than 0.0156 µg/mL; in the assay on Streptococcus pneumoniae [9], 0.0313 µg/mL; against Staphylococcus aureus [10], 8 µg/mL; against Klebsiella pneumoniae [11], 0.0625 µg/mL; against Pseudomonas aeruginosa [12] it was greater than 128 µg/mL. Moreover, the MIC with Staphylococcus aureus [13] is greater than 128 µg/mL.
Regarding `CO/N=C(/C(=O)NC1C(=O)N2C(C(=O)[O-])=C(CSc3nnnn3CC(=O)N3CCN(c4cc5c(cc4F)c(=O)c(C(=O)O)cn5C4CC4)CC3)CS[C@H]12)c1csc(N)n1.[Na+]` (stereo partly drawn), the MIC against Streptococcus pyogenes [1] is no more than 0.0156 µg/mL; with Citrobacter freundii [2], 32 µg/mL; with Enterobacter cloacae [3], 16 µg/mL; against Staphylococcus aureus [4] it was 128 µg/mL; against Escherichia coli [5] it was 2 µg/mL; against Pseudomonas aeruginosa [6], greater than 128 µg/mL. For the same molecule, the MIC against Escherichia coli [7] is 4 µg/mL; against Proteus vulgaris [8] it was 4 µg/mL; in the assay on Streptococcus pneumoniae [9] it was no more than 0.0156 µg/mL; with Staphylococcus aureus [10], 4 µg/mL; with Klebsiella pneumoniae [11], 2 µg/mL; with Pseudomonas aeruginosa [12], 128 µg/mL. This molecule also had an MIC against Staphylococcus aureus [13] of 64 µg/mL.
As for `O=C(O)c1cn(C2CC2)c2cc(N3CCN(C(=O)Cn4nnnc4S)CC3)c(F)cc2c1=O`, the MIC turned out to be 64 µg/mL (≈ 135 µM) in the assay with Streptococcus pyogenes [1]; 4 µg/mL (≈ 8.45 µM) against Citrobacter freundii [2]; 2 µg/mL (≈ 4.22 µM) against Enterobacter cloacae [3]; 64 µg/mL (≈ 135 µM) in the assay on Staphylococcus aureus [4]; 2 µg/mL (≈ 4.22 µM) against Escherichia coli [5]; 128 µg/mL (≈ 270 µM) with Pseudomonas aeruginosa [6]. In addition, the MIC in the assay on Escherichia coli [7] was determined as 2 µg/mL (≈ 4.22 µM); with Proteus vulgaris [8], 4 µg/mL (≈ 8.45 µM); against Streptococcus pneumoniae [9], 64 µg/mL (≈ 135 µM); with Staphylococcus aureus [10] it was 32 µg/mL (≈ 67.6 µM); against Klebsiella pneumoniae [11], 32 µg/mL (≈ 67.6 µM); in the assay on Pseudomonas aeruginosa [12], 32 µg/mL (≈ 67.6 µM). In the assay with Staphylococcus aureus [13], this molecule came in with an MIC of 64 µg/mL (≈ 135 µM).
On to `O=C(O)c1cn(C2CC2)c2c(F)c(N3CCNCC3)c(F)cc2c1=O`, for which the MIC with Streptococcus pyogenes [1] is 0.5 µg/mL (≈ 1.43 µM); against Citrobacter freundii [2], 0.0313 µg/mL (≈ 0.0896 µM); with Enterobacter cloacae [3], 0.0078 µg/mL (≈ 0.0223 µM); in the assay on Staphylococcus aureus [4], 0.25 µg/mL (≈ 0.716 µM); in the assay with Escherichia coli [5], 0.0156 µg/mL (≈ 0.0447 µM); in the assay with Pseudomonas aeruginosa [6], 1 µg/mL (≈ 2.86 µM). Further, the MIC was found to be 0.0078 µg/mL (≈ 0.0223 µM) against Escherichia coli [7]; 0.0078 µg/mL (≈ 0.0223 µM) against Proteus vulgaris [8]; 1 µg/mL (≈ 2.86 µM) against Streptococcus pneumoniae [9]; 0.125 µg/mL (≈ 0.358 µM) against Staphylococcus aureus [10]; 0.25 µg/mL (≈ 0.716 µM) against Klebsiella pneumoniae [11]; 0.25 µg/mL (≈ 0.716 µM) against Pseudomonas aeruginosa [12]. The molecule also displayed an MIC in the assay with Staphylococcus aureus [13] of 0.5 µg/mL (≈ 1.43 µM).
Take `CO/N=C(/C(=O)NC1C(=O)N2C(C(=O)[O-])=C(CO)CS[C@H]12)c1csc(N)n1.[Na+]` (stereo partly drawn): the MIC in the assay with Streptococcus pyogenes [1] is no more than 0.0157 µg/mL; with Citrobacter freundii [2], greater than 128 µg/mL; with Enterobacter cloacae [3] it was greater than 128 µg/mL; against Staphylococcus aureus [4], greater than 128 µg/mL; against Escherichia coli [5] it was 0.25 µg/mL; against Pseudomonas aeruginosa [6] it was greater than 128 µg/mL. In addition, the MIC in the assay with Escherichia coli [7] is 0.25 µg/mL; in the assay with Proteus vulgaris [8] it was 0.0625 µg/mL; against Streptococcus pneumoniae [9], 0.0625 µg/mL; in the assay with Staphylococcus aureus [10] it was 16 µg/mL; with Klebsiella pneumoniae [11] it was 0.0625 µg/mL; against Pseudomonas aeruginosa [12], greater than 128 µg/mL. The molecule also had an MIC against Staphylococcus aureus [13] greater than 128 µg/mL.
Turning to `O=C([O-])Cn1nnnc1[S-].[Na+].[Na+]`, the MIC in the assay with Enterobacter cloacae [14], against Citrobacter freundii [15], in the assay with Pseudomonas aeruginosa [16], in the assay with Klebsiella pneumoniae [17], in the assay with Streptococcus pneumoniae [18] and in the assay on Staphylococcus aureus [19] was greater than 128 µg/mL each time. Further, the MIC against Staphylococcus aureus [20], in the assay on Staphylococcus aureus [21], against Streptococcus pyogenes [22], against Pseudomonas aeruginosa [23], with Escherichia coli [24] and in the assay with Proteus vulgaris [25] was greater than 128 µg/mL in each case. Moreover, the MIC with Escherichia coli [26] was greater than 128 µg/mL.
